Legend:
APP/PS1 mice = experiment: HE staining of hippocampus; assay type: in vivo; conditions: hippocampus CA1, CA3, DG, nasal HYP
Experimental: All animal care and experimental procedures were performed in accordance with the “Institutional Animal Care and User Committee Guidelines” of the Macau University of Science and Technology. APP/PSEN1 (APP/PS1) mice (N000175) were purchased from the Nanjing Institute of Biomedical Sciences, Nanjing University, China, weighing 25 ± 5 g. The animals were housed in a temperature-controlled room with a 12 h light/dark cycle and given ad libitum food and water. Male mice were randomly divided into the following 6 experimental groups. (a) wild-type group (n = 6), (b) APP/PS1 group (n = 6), (c) HYP (20 mg/kg group) (n = 7), (d) HYP (40 mg/kg) group (n = 8), (e) HYP (80 mg/kg) group (n = 8) and (f) memantine (MEM) (10 mg/kg) positive control group (n = 8). HYP was dissolved in the solvent containing 10% DMSO, 40% PEG300 and 5% Tween-80 in PBS, and administrated via nasal injection for every 3 days with a volume of 0.5 μL/g of body weight for 8 consecutive weeks. Pathological assessment on the cornuammonis region 1 (CA1), cornuammonis region 3 (CA3) and dentate gyrus region (DG) regions of the mouse hippocampus was done by HE staining. Brain sections were dehydrated with 70%, 80% and 90% alcohol respectively. […]

Aβ (1–42) = target: T1, Aβ (1–42) (Homo sapiens, UniProt P05067); experiment: Thioflavin T (ThT) fluorescence assay of Aβ fibrillation; assay type: biochemical; conditions: Aβ 30 μM, 37 °C, day 1–7
T1 construct: purchased DGpeptites, Hangzhou, CHINA
T1 sequence (P05067 672-713 limits assumed): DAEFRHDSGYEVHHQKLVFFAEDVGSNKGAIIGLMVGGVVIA
Experimental: HYP was incubated with Aβ (30 μM) for 7 days at 37 °C at a final volume of 100 μL. ThT fluorescence measurement was measured for every 24 h. ThT (20 μM) dissolved in PBS (pH = 7.4) was added in a black 96-well plate with 10 μL of aggregated Aβ (with or without HYP) and incubated for 1 h. Fluorescence measurement was then performed using a microplate reader (SpectraMax Paradigm, Molecular Devices, CA, USA) with an excitation wavelength of 450 nm and an emission wavelength of 490 nm. Background fluorescence was measured in control samples containing PBS and 0.02 % DMSO.

β-secretase = target: T2, β-secretase (Mus musculus, UniProt P56818); experiment: BACE-1 inhibition assay (β-secretase activity in HT22 cell lysate); assay type: cell-based; conditions: HT22 cells, HYP 20–80 μM, 24 h
T2 construct: 50 μL supernatant (cell lysate) was transferred to each well in the 96-well plate; endogenous in cells; host or cells: HT22 cells
T2 sequence (P56818 46-501): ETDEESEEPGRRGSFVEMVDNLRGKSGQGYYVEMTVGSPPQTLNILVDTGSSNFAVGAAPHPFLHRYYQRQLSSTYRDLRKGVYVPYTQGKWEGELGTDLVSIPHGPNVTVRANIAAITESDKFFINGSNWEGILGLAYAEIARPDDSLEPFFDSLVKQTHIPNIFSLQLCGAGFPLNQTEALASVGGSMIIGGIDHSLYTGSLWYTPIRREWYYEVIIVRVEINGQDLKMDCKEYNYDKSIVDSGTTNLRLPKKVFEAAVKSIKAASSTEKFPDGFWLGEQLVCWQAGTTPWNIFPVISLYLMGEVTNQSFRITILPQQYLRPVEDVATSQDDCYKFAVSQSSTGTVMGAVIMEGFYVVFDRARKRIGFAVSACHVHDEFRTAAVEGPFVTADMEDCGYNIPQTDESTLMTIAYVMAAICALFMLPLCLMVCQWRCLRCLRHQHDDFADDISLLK
Experimental: The assay was performed in a 96-well flat-bottom white plate using β-Secretase Activity Fluorometric Assay Kit (Biovision, CA, USA). To begin, HT22 cells were treated with HYP (20–80 μM) for 24 h and then collected by centrifugation with ice-cold extraction buffer added for homogenization. After centrifugation, 50 μL supernatant (cell lysate) was transferred to each well in the 96-well plate. 2 μL of active β-secretase (protein concentration: 4 μg/μL) was added to the 50 μL of extraction buffer as the positive control. For negative control, 2 μL of the β-secretase inhibitor was added to the 50 μL of sample well. 2 μL of each of the tested samples were added into each sample well for inhibitory activity evaluation. Following compounds addition, 50 μL of 2X reaction buffer was added with a gentle mix and incubation for 20 min at 37 °C before adding 2 μL of the β-secretase substrate. The plate was then covered and incubated in the dark at 37 °C for 1 h. Samples were then measured in a fluorescent 96-well plate reader (Ex/Em = 345/500 nm). Background readings produced from the substrate without adding secretase were subtracted from all samples.

HT22 cells = experiment: Cytoplasmic calcium dynamics (FLIPR Calcium 6); assay type: cell-based
Experimental: Intracellular Ca^2+ dynamics were determined using the FLIPR Calcium 6 Assay Kit (Molecular Devices) according to the manufacturer's instructions. Briefly, HT22 was housed at 4 × 10^4 cells per well in a black-walled and clear-bottom 96 multi-well plate (Costar, MA, USA) and treated with Calcium 6 reagent for 1 h.

Aβ aggregates = target: T3, Aβ aggregates (Homo sapiens, UniProt P05067); experiment: Biolayer interferometry (BLI) analysis; assay type: binding
T3 construct: purchased DGpeptites, Hangzhou, CHINA
T3 sequence (P05067 672-713 limits assumed): as the sequence (P05067 672-713 limits assumed) above
Experimental: 200 μL of solution containing 200 μg of the Aβ peptide was incubated at 37 °C for 5 days. EZ-Link NHS-LC-LC-Biotin (Thermo Scientific, USA) was dissolved in DMSO to a concentration of 10 mM. Aβ aggregates was biotinylated in a 1:0.5 M ratio of biotin reagent and incubated for 30 min at room temperature before being added to a 96-well plate (Greiner Bio-One, PN:655,209). Biotinylation was ascertained by loading the mixture onto super streptavidin (SSA) capacity tips (ForteìBIO, CA, USA) and detected by the FortéBIO Octet Red instrument. Additionally, SSA biosensors were pre-wetted with PBS for the recording of baselines. Successful biotinylated Aβ aggregates solution was collected and immobilized onto SSA tips overnight at 4 °C. HYP dissolved in DMSO was diluted to an appropriate concentration with PBS to a final 200 μL/well volume. Control wells were added with an equal amount of DMSO. All experiments consisted of repeated cycles of four significant steps: wash (300 s), baseline (120 s), association (120 s), and dissociation (120 s). The association, dissociation plot, and kinetic constants were analyzed with ForteìBIO data analysis software.

## O=c1c(O[C@@H]2O[C@H](CO)[C@H](O)[C@H](O)[C@H]2O)c(-c2ccc(O)c(O)c2)oc2cc(O)cc(O)c12 [HYP, Quercetin-3-O-β-D-galactopyranoside]
APP/PS1 mice
  neuronal cell morphology (HE staining): neuronal cell morphological changes were minimal
Aβ (1–42)
  Aβ fibrillation and aggregation (ThT fluorescence): reduced Aβ fibrillation and aggregation
β-secretase
  β-secretase activity: inhibited β-secretase activity
HT22 cells; HT22 cells, Aβ 30 μM + HYP 20–80 μM, calcium-containing HBSS
  dynamic Ca2+ level induced by Aβ: decreased the level of Ca^2+ in a dose dependent manner
HT22 cells; HT22 cells, Aβ 30 μM + HYP 20–80 μM, calcium-free HBSS
  dynamic Ca2+ level induced by Aβ: downregulated the Aβ -induced level of Ca^2+ in a dose-dependent manner
HT22 cells; si-RyR2 HT22 cells, aggregated Aβ 30 μM + HYP 40 μM
  dynamic Ca2+ level induced by Aβ: restored the Aβ-induced dishomeostasis of Ca^2+ in si-RyR2 HT22 cells (Fig. 9H) to a lesser extent
Aβ aggregates; Fig. 1G, dissociation rate constant
  Kids: 0.0343 s⁻¹
Aβ aggregates; HYP 6.25–200 μM, biotinylated Aβ aggregate
  Kd: 14.5 µM

Reference: article PMC9975698, “Hyperoside alleviates toxicity of β-amyloid via endoplasmic reticulum-mitochondrial calcium signal transduction cascade in APP/PS1 double transgenic Alzheimer's disease mice” (Redox Biology, 2023)
